Measurements: patent publication US5156956A, “Transgultaminase” (Ajinomoto Co., Inc., priority 1987, dated 1992)
Residues, ends and D or L forms follow the SMILES beside them. *: point of attachment. Cbz = O=C(OCc1ccccc1)*

Tests used:
[1] = biological target: T1, BTG-2 (Streptomyces griseocarneus, UniProt A0ABX7RSJ1); assay: Substrate specificity: synthetic substrates with hydroxylamine; format: biochemical, Streptoverticillium griseocarneum IFO 12776; conditions: for Substrate specificity (%) BTG-2: Table 4; for Reactivity of substrate with BTG-2 (relative, Table 1): substrate 5 mM, with hydroxylamine
T1 construct: Ca2+-independent; made as pre-pro-protein
Protocol: (§1) Measurement of the activity of BTGase is carried out by performing a reaction using benzyloxycarbonyl-L-glutaminyl glycine and hydroxylamine as substrates in the absence of Ca^2+, forming an iron complex with the resulting hydroxamic acid in the presence of trichloroacetic acid, measuring absorption at 525 nm and determining the amount of hydroxamic acid by a calibration curve to calculate the activity. The BTGase activity is measured by the method described below, unless otherwise indicated.
(§2) To 0.05 ml of an enzyme solution is added 0.5 ml of Reagent A and they are mixed with each other. After reacting at 37° C. for 30 minutes, Reagent B is added thereto to discontinue the reaction and form an Fe complex. Thereafter, absorbance is measured at 525 nm. […] Separately, a calibration curve is prepared using L-glutamic acid γ-monohydroxamio acid instead of the enzyme solution, and the amount of hydroxamic acid produced is determined by the difference in absorbance described above. An enzyme activity which produces 1 μmol of hydroxamic acid per 1 minute is defined as 1 unit.
(§3) Using each BTGase, reactions of various synthetic substrates with hydroxylamine were examined. […] In this case, the concentration of various synthetic substrates is 5 mM. In the table, CBZ, Gln, Gly and Asn are abbreviations for benzyloxycarbonyl group, glutaminyl group, glycyl group and asparaginyl group, respectively.

[2] = biological target: T2, MTGase (transglutaminase of guinea pig liver) (UniProt P08587); assay: Substrate specificity: synthetic substrates; format: biochemical; conditions: Table 4
T2 construct: from tissue; host or cells: guinea pig liver
T2 sequence (P08587 1-690): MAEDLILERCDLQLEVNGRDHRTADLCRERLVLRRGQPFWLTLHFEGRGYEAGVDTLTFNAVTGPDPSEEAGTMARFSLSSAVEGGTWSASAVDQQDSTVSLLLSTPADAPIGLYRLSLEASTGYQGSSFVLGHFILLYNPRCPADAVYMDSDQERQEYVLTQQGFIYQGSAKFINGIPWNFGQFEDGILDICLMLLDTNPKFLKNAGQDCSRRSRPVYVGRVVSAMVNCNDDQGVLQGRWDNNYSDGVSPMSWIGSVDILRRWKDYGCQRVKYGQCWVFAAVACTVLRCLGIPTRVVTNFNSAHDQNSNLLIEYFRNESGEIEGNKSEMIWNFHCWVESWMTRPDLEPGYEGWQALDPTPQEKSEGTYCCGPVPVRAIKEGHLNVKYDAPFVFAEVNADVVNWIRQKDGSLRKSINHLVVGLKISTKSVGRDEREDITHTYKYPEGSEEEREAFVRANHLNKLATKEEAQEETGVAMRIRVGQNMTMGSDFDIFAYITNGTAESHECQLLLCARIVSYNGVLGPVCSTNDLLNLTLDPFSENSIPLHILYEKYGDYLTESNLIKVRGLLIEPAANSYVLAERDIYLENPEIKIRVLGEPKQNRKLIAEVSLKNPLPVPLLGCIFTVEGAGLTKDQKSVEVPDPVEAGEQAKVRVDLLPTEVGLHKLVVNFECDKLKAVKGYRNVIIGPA
Protocol: Next, properties of BTGases are compared to those of guinea pig liver-derived transglutaminase. The guinea pig liver-derived transglutaminase was prepared by the method described in Published Unexamined Japanese Patent Application No. 149645/83. As will be apparent from Tables 4 and 5, various differences in enzymological properties are noted between transglutaminase of guinea pig liver (hereafter referred to as MTGase) which has been mainly investigated heretofore and BTGases derived from actinomycetes; in particular, differences are noted in temperature stability, molecular weight, isoelectric point and substrate specificity. Further, a difference is noted in that the BTGases of the present invention act in the presence and absence of Ca^2+. Therefore, the respective enzymes of the present invention are different from MTGase in their properties.

[3] = biological target: T3, BTG-1 (Streptomyces mobaraensis, UniProt P81453); assay: Substrate specificity: synthetic substrates with hydroxylamine; format: biochemical, Streptoverticillium mobaraense IFO 13819; conditions: for Substrate specificity (%) BTG-1: Table 4; for Reactivity of substrate with BTG-1 (relative, Table 1): substrate 5 mM, with hydroxylamine
T3 construct: BTGase is dissolved in the culture solution and can be harvested from the culture filtrate; endogenous in cells; host or cells: Streptoverticillium mobaraense IFO 13819 (natural producer; purified from culture filtrate)
T3 sequence (P81453 77-407): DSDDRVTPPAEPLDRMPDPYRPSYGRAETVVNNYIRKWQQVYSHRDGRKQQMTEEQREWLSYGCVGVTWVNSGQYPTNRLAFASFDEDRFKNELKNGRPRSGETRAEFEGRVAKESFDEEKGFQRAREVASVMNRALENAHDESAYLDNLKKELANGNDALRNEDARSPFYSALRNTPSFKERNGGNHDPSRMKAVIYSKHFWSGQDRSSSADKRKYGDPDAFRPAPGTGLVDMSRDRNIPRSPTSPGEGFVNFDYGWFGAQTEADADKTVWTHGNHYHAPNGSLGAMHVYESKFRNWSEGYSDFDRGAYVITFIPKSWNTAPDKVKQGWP
Protocol: as §1, §2, §3

[4] = biological target: T4, BTG-3 (Streptomyces cinnamoneus, UniProt Q8GR90); assay: as above; format: biochemical; conditions: for Substrate specificity (%) BTG-3: Table 4; for Reactivity of substrate with BTG-3 (relative, Table 1): substrate 5 mM, with hydroxylamine
T4 construct: Ca2+-independent; made as pre-pro-protein
T4 sequence (Q8GR90 86-416): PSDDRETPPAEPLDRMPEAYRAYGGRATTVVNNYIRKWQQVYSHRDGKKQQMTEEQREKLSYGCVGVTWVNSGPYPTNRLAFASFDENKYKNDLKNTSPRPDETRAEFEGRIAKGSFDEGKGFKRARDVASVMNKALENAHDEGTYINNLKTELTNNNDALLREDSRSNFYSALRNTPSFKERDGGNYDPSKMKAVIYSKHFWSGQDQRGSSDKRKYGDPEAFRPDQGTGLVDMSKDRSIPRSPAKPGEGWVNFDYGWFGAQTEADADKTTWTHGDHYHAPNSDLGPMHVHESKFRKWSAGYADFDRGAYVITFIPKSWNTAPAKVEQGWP
Protocol: as §1, §2, §3

[5] = biological target: T4, BTG-3; assay: Influence of metal ions on activity; format: biochemical; conditions: metal ion 1 mM; None = 100; 30 min
Protocol: as §1, §2

[6] = biological target: T1, BTG-2; format: biochemical, Streptoverticillium griseocarneum IFO 12776; conditions: metal ion 1 mM; None = 100; 30 min
Protocol: as §1, §2

[7] = biological target: T3, BTG-1; assay: Influence of metal ions on activity; format: biochemical, Streptoverticillium mobaraense IFO 13819; conditions: metal ion 1 mM; None = 100; 30 min
Protocol: as §1, §2

[8] = biological target: T1, BTG-2; assay: biochemical; parameters: species or system Streptoverticillium griseocarneum IFO 12776
Protocol: as §1, §2

[9] = biological target: T3, BTG-1; assay: biochemical; parameters: species or system Streptoverticillium mobaraense IFO 13819
Protocol: as §1, §2

[10] = biological target: T4, BTG-3; assay: biochemical
Protocol: as §1, §2

[11] = system: BTGase; assay: Substrate specificity, statement on all BTGases; format: biochemical, Streptoverticillium; conditions: substrate 5 mM, with hydroxylamine
Protocol: as §3

[12] = inhibitor 1 mM, 25° C. for 30 minutes, None = 100

Row | SMILES | Reactivity of substrate with BTG-2 (relative, Table 1) [1] | Reactivity of substrate with BTG-1 (relative, Table 1) [3] | Reactivity of substrate with BTG-3 (relative, Table 1) [4] | BTG-3 (%) activity with metal ion [5] | BTG-2 (%) activity with metal ion [6] | BTG-1 (%) activity with metal ion [7] | also measured
1 | NC(=O)CC[C@H](NC(=O)CNC(=O)OCc1ccccc1)C(=O)NCC(=O)NCC(=O)O [CBZ--Gly--Gln--Gly--Gly] (Cbz-GQGG-OH) | 12 | 8 | 11 |  |  |  | Substrate specificity (%) BTG-2 [1]: 12%; Substrate specificity (%) MTGase [2]: 126%; Substrate specificity (%) BTG-1 [3]: 8%; Substrate specificity (%) BTG-3 [4]: 11%
2 | [Cl-].[Cl-].[Co+2] [CoCl2] |  |  |  | 103% | 103% | 103% | 
3 | [Cl][Ni][Cl] [NiCl2] |  |  |  |  | 100% |  | 
4 | [Cl][Fe]([Cl])[Cl] [FeCl3] |  |  |  | 106% | 104% | 96% | 
5 | [Cl][Mn][Cl] [MnCl2] |  |  |  | 97% | 97% |  | 
6 | O=S(=O)(F)Cc1ccccc1 [PMSF, phenylmethylsulfonyl fluoride] |  |  |  |  |  |  | BTG-2 (%) activity with inhibitor [8, 12]: 95%; BTG-1 (%) activity with inhibitor [9, 12]: 104%; BTG-3 (%) activity with inhibitor [10, 12]: 101%
7 | NC(=O)CC[C@H](NC(=O)CNC(=O)CNC(=O)OCc1ccccc1)C(=O)NCC(=O)O [CBZ--Gly--Gly--Gln--Gly] (Cbz-GGQG-OH) | 58 | 23 | 60 |  |  |  | Substrate specificity (%) BTG-2 [1]: 58%; Substrate specificity (%) MTGase [2]: 27%; Substrate specificity (%) BTG-1 [3]: 23%; Substrate specificity (%) BTG-3 [4]: 60%
8 | [Ba+2].[Cl-].[Cl-] [BaCl2] |  |  |  | 105% | 99% | 101% | 
9 | NCC(=O)N[C@@H](CCC(N)=O)C(=O)NCC(=O)O [Gly--Gln--Gly, glycylglutaminyl glycine] (H-Gly-Gln-Gly-OH) | 0 | 0 | 0 |  |  |  | Reactivity of synthetic substrate with the BTGases (in words) [11]: No BTGase reacts
10 | NC(=O)C[C@H](NC(=O)OCc1ccccc1)C(=O)NCC(=O)O [CBZ--Asn--Gly, benzyloxycarbonylasparaginyl glycine] (Cbz-Asn-Gly-OH) | 0 | 0 | 0 |  |  |  | Reactivity of synthetic substrate with the BTGases (in words) [11]: No BTGase reacts
11 | CC(=O)[O-].CC(=O)[O-].[Pb+2] [Pb(CH3 COO)2] |  |  |  | 100% | 97% | 97% | 
12 | O=C(O)CN(CCN(CC(=O)O)CC(=O)O)CC(=O)O [EDTA] |  |  |  |  |  |  | inhibition at 1000 µM ([8]; read-out: BTG-2 (%) activity with inhibitor): 98%; inhibition at 1000 µM ([9]; read-out: BTG-1 (%) activity with inhibitor): 102%; inhibition at 1000 µM ([10]; read-out: BTG-3 (%) activity with inhibitor): 99%
13 | [Cl-].[Na+] [NaCl] |  |  |  | 101% | 102% | 99% | 
14 | [Cl-].[Cl-].[Sr+2] [SrCl2] |  |  |  | 100% | 101% | 100% | 
15 | [Cl-].[Cl-].[Mg+2] [MgCl2] |  |  |  | 103% | 104% |  | 
16 | CCOC(=O)CNC(=O)[C@H](CCC(N)=O)NC(=O)OCc1ccccc1 [CBZ--Gln--Gly--OEt] (Cbz-Gln-Gly-OEt) | 44 | 63 | 42 |  |  |  | Substrate specificity (%) BTG-2 [1]: 44%; Substrate specificity (%) MTGase [2]: 122%; Substrate specificity (%) BTG-1 [3]: 63%; Substrate specificity (%) BTG-3 [4]: 42%
17 | [Cl-].[K+] [KCl] |  |  |  | 105% | 99% | 96% | 
18 | NC(=O)CC[C@H](NC(=O)OCc1ccccc1)C(=O)O [CBZ--Gln, benzyloxycarbonyl glutamine] | 0 | 0 | 0 |  |  |  | Reactivity of synthetic substrate with the BTGases (in words) [11]: No BTGase reacts
19 | NC(=O)CC[C@H](NC(=O)OCc1ccccc1)C(=O)N[C@@H](CCC(N)=O)C(=O)NCC(=O)O [CBZ--Gln--Gln--Gly] (Cbz-Gln-Gln-Gly-OH) | 39 | 38 | 35 |  |  |  | Substrate specificity (%) BTG-2 [1]: 39%; Substrate specificity (%) MTGase [2]: 288%; Substrate specificity (%) BTG-1 [3]: 38%; Substrate specificity (%) BTG-3 [4]: 35%
